# Data taken from US9192595B2, “Compounds with a skin pigmenting activity and pharmaceutical or cosmetic compositions containing them” (priority 2010, dated 2015).
# Key:
# [1] = tested on: Normal human scalp skin; assay: Epidermal pigmentation in full-thickness skin organ culture (quantitative Masson-Fontana staining); assay type: cell-based
# Description: This experimental study on the active ingredient octatrienoic acid according to the invention was based on organ cultures of skin biopsies, which were tested in 4 groups (3 skin biopsies/well) and incubated with different concentrations of the active ingredient for 6 days.
# Normal human scalp skin was obtained from a person undergoing routine face-lift surgery, subject to their informed consent. All experiments were performed in accordance with the Declaration of Helsinki, with the approval of an ad hoc Ethical Committee.
# Biopsies 3-4 mm in size were cultured at 37° C. for 6 days in Williams' E medium (Biochrom, Cambridge, U.K.) supplemented with 100 IU mL^−1 penicillin, 10 μg mL^−1 streptomycin (Gibco, Karlsruhe, Germany), 10 μg mL^−1 insulin (Sigma, Taufkirchen, Germany), 10 ng mL^−1 hydrocortisone (Sigma) and 2 mmol L^−1 L-glutamine (Invitrogen, Paisley, UK).
# Three different concentrations of octatrienoic acid (0.1 μg/mL, 0.25 μg/mL, 0.5 μg/mL) or the reference medium were administered once, at each change of medium (i.e. every 48 hours).
# For histochemical melanin assessment, Masson-Fontana staining was applied to frozen adult human scalp skin sections. Melanin stained as brown spots and the degree of pigmentation was evaluated using the quantitative Masson-Fontana test, as described elsewhere (Ito et al., 2005). This method gives a sensitive and reliable indication of changes in melanin synthesis, as shown by standard tyrosinase expression and enzyme activity assays. (Kauser et al., 2006)
# Staining intensity was analysed in a previously-defined reference area of the epidermis using ImageJ software (National Institute of Health).
# The statistical analysis was performed using Student's two-tailed t-test for independent samples.
# [2] = tested on: tyrosinase mRNA; assay: Tyrosinase mRNA expression by real-time RT-PCR in primary melanocyte cultures; assay type: cell-based, human; conditions: 24 h incubation; 40 and 55 μm; NHM LP and NHM HP; vs. Ctr; FIG. 3
# Description: (§1) A second experimental study assessed the action of the compounds according to the invention on the phenomena of melanocyte differentiation in the melanogenic process, as described below with reference to the attached drawings in FIGS. 3, 4 and 5. For this purpose, octatrienoic acid (called Octa in the diagrams, for the sake of brevity) was used on foreskin primary melanocyte cultures with varying degrees of basal pigmentation to assess the following parameters: • a) mRNA and tyrosinase protein expression, using real-time RT-PCR and Western-blot methods; • b) enzymatic activity of tyrosinase by spectrophotometry; • c) Quantification of melanin genesis by spectrophotometry.
# Tyrosinase mRNA expression was assessed by real-time RT-PCR on mRNA specimens extracted from cells after 24 h of incubation with octatrienoic acid at concentrations of 40 and 55 μm.
# Forskoline (FSK), a known adenylate cyclase activator capable of promoting melanin synthesis, was used as a control for comparison with the activity of octatrienoic acid.
# For these columns, *=p<0.01 vs. Ctr, **=p<0.001 vs. Ctr, and $=p<0.05 vs. Ctr.
# [3] = tested on: tyrosinase protein; assay: Western blot analysis of tyrosinase protein expression in primary melanocyte cultures; assay type: cell-based, human; conditions: 72 h; same doses (40 and 55); Western blot on protein extracts
# Description: as §1
# [4] = tested on: tyrosinase; assay: Tyrosinase enzymatic activity by spectrophotometry on melanocyte cell lysates; assay type: cell-based, human; conditions: 72 h; 40 and 55 μM; NHM LP and NHM HP; p<0.05 vs. Ctr; FIG. 4
# Description: as §1
# The activity of tyrosinase was evaluated by spectrophotometry on cell lysates derived from specimens incubated for 72 h with octatrienoic acid at concentrations of 40 and 55 μM, vs. control culture.
# For these columns, *=p<0.05 vs. Ctr.
# [5] = tested on: foreskin primary melanocyte cultures; assay: Intracellular melanin content by spectrophotometry in melanocyte cell lysates; assay type: cell-based, human; conditions: 72 h; 40 and 55 μM; NHM LP and NHM HP; vs. Ctr; FIG. 5
# Description: as §1
# In FIG. 5, *=p<0.05 vs. Ctr, **=p<0.01 vs. Ctr, $=p<0.001 vs. ctr.
smiles,measurement,setting,value
C/C=C/C=C/C=C/C(=O)O [octatrienoic acid],intensity of Masson-Fontana staining,"[1]; day 6, each dose (0.1, 0.25, 0.5 μg/mL) by comparison with the medium alone, FIG. 1",marked increase
same,pigmentation in the basal layer of the epidermis,"[1]; day 6, each dose administered, microphotographs x200, FIG. 2",increased pigmentation
same,skin pigmentation,"[1]; skin culture, all three doses tested (0.1, 0.25, 0.5 μg/mL), 6 days",increased the skin pigmentation
same,"tyrosinase mRNA expression (Rel tyr mRNA expression, fold change)",[2],significant induction
same,melanogenic enzyme (tyrosinase) protein expression,[3],induced melanogenic enzyme protein expression
same,"tyrosinase enzymatic activity, % of the Ctr",[4],significant increase
same,quantity of intracellular melanins,[5],significant induction
